Reference: paper PMC6754304 (Cell, 2019)

Molecular target: S. cerevisiae HSP90 (HSP82) (Saccharomyces cerevisiae, UniProt P02829)
Sequence (P02829 whole entry): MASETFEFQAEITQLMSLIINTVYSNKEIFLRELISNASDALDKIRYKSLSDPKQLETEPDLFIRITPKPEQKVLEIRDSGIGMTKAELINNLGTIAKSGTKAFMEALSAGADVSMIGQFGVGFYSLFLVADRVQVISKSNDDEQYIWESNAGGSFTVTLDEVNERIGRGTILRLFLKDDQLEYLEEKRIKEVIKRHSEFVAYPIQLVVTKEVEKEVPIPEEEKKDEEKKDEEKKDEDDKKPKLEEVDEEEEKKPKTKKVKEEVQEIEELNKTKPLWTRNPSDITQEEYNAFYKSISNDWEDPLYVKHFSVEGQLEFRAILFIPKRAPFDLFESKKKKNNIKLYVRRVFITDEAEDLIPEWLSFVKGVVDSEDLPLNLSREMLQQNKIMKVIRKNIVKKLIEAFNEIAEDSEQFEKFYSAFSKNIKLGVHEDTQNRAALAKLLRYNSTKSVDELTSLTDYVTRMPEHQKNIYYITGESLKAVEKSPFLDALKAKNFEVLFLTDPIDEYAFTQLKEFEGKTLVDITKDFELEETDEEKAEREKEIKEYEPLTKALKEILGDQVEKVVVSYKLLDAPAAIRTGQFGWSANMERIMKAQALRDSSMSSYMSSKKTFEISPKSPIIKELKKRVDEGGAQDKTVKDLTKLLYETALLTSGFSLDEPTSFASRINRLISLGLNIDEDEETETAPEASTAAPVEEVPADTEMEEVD

Structure (SMILES): Nc1ncnc2c1ncn2[C@@H]1O[C@H](COP(=O)(O)OP(=O)(O)OP(=O)(O)O)[C@@H](O)[C@H]1O [ATP]
- ATPase activity: assayed by measuring free phosphate release from ATP using the Malachite Green method
